Literature values in patent publication US6461603B2, “Water-soluble polymer conjugates of artelinic acid” (Shearwater Corporation, priority 2000, dated 2002).

| Structure (SMILES) | water solubility (background statement) | solubility at physiological pH (physiological pH, higher pH required for desirable solubility) |
| --- | --- | --- |
| C[C@@H]1CC[C@H]2[C@@H](C)C(OCc3ccc(C(=O)O)cc3)O[C@@H]3O[C@]4(C)CC[C@@H]1[C@]32OO4 (some centres unmarked) [artelinic acid] | low | – |
| C[C@H]1[C@@H](OCc2ccc(C(=O)O)cc2)O[C@@H]2O[C@]3(C)CC[C@H]4[C@H](C)CC[C@@H]1[C@@]24OO3 [sodium artelinate] | – | not highly soluble |
